Reference: US11690833B2, “Personal care compositions” (priority 2017, dated 2023)
Like-named read-outs stand apart in the source and are kept apart here.

Columns and labels:
[1] = test system: oral bacteria; assay: Alamar Blue evaluation of antibacterial efficacy in the presence of the anionic surfactant SLS; format: cell-based, human saliva; settings: 10 mg active + 20 mg of 30 weight % SLS solution + 5 ml oral bacteria solution, 37° C., 1 hour after addition of Alamar Blue dye, color change from blue to red indicates live bacteria
Procedure: In particular, the antibacterial efficacy of a CPC—ZnCl2 complex was compared to ZnCl2 and CPC individually, in the presence of SLS, as follows: human saliva was collected and diluted three times with deionized water, centrifuged, and decanted to yield a translucent solution of oral bacteria. […] A negative control was also prepared adding 20 mg (+/−0.9 mg) of the 30 weight % SLS aqueous solution and 5 ml of the prepared oral bacteria solution to deionized water instead of the antibacterial ingredient. The samples were then placed in a 37° C. oven and shaken at 100 RPM for 30 minutes. 200 μL of Alamar Blue dye was then added to each sample and placed back in the 37° C. oven and shaken at 100 RPM. The samples were then monitored every 30 minutes, with the results 1 hour after addition of the dye recorded in Table 1. Under an Alamar Blue assay, a color change from blue to red indicates the presence of live bacteria.

Structure (SMILES)	Color of Solution [1]	Color of Solution ([1]; listed as CPC—ZnCl2 complex)	solubility in water (0.1 weight % solution, room temperature (23-24° C.))	solubility in water (0.5 weight % solution, room temperature (23-24° C.))	solubility in water (1.0 weight % solution, physiological temperature (36-37° C.))	solubility in water (1.0 weight % solution, room temperature (23-24° C.), after 24 hours of aging)	solubility in water (10 weight % solution, physiological temperature (36-37° C.))	solubility in water (10.0 weight % solution, room temperature (23-24° C.), after 24 hours of aging)	reduction in solubility compared to the CPC and ZnCl2 reactants separately (water) [fold]
[Cl-].[Cl-].[Zn+2] [ZnCl2, zinc chloride]	Purple								
CCCCCCCCCCCCCCCC[n+]1ccccc1.CCCCCCCCCCCCCCCC[n+]1ccccc1.[Cl][Zn-2]([Cl])([Cl])[Cl] [CPC-ZnCl2 complex]	Blue	blue	soluble	soluble	soluble	undissolved	not fully soluble	undissolved	≥ 25
CCCCCCCCCCCCCCCC[n+]1ccccc1 [CPC, cetylpyridinium chloride]	pink and Pink								
